Measured values published in patent publication US10426772B2, “Use of ergot alkaloids as an anthelmintic agent” (priority 2016, dated 2019).

How the values were obtained:
Sm.5HTR = Sm.5HTR (Schistosoma mansoni, UniProt G4V5G4); type: cell-based; conditions: FIG. 10A
adult S. mansoni = assay: Movement assay of cultured adult S. mansoni (Example 2); type: cell-based; conditions: Schistosoma mansoni; FIG. 19B; read-out: EC50, stimulation of adult schistosome movement
Source text: (§1) Female Swiss Webster mice infected with S. mansoni cerceria (NMRI strain) were sacrificed 49 days post infection by CO2 euthanasia. Adult schistosomes were recovered by perfusion with a solution of 0.85% sodium chloride+0.75% sodium citrate and dissection of the mesenteric vasculature. Harvested schistosomes were washed in RPMI 1640 Medium with GlutaMAX+5% heat inactivated FBS (Gibco) and Penicillin-Streptomycin (final concentration 100 units/mL, ThermoFisher cat #15140122).
For movement assays, worms were cultured 37° C./5% CO2 in vented 100×25 mm petri dishes (ThermoFisher cat #4031) containing 50 mL of media and used between 1-3 days after harvesting. Prior to assessing worm movement, individuals were transferred to a six well dish (4-5 individuals per well) containing 3 mL drug solution in RPMI 1640 supplemented with HEPES (25 mM) and MS (5%). Videos were recorded using a Zeiss Discovery v20 stereomicroscope and a QiCAM 12-bit cooled color CCD camera controlled by metamorph imaging software (version 7.8.1.0). 1 minute recordings were acquired at 4 frames per second, saved as a .TIFF stack, and movement was analyzed using ImageJ software as described in (PMID: 27187180, PMID: 27397763).

adult schistosomes = assay: Egg laying assay, adult schistosome pairs in vitro; type: cell-based, Schistosoma mansoni
Source text: as §1
For egg laying assays, adult schistosomes were transferred to 24 well plates the day after harvesting from mice (5 worm pairs in 2 mL media per well). Eggs were counted under a stereomicroscope daily, after which worms were transferred to a new well with fresh drug containing media. Egg counts were recorded for five days, and data processed as the mean number of eggs laid per worm pair/day. Measurements of egg dimensions were quantified using the “analyze>measure” function in ImageJ to record the length and width of individual eggs.

S. mansoni = assay: Curative efficacy against schistosome infection in mice; type: in vivo, Schistosoma mansoni
Procedure: Assays testing the curative efficacy of compounds against schistosome infection were performed on mice 6 weeks after exposure to cerceria. Drugs were dosed as follows. Ergotamine (95 mg/kg) was solubilized in 50 μL DMSO and diluted in 200 μL trappsol-saline and delivered by intraperitoneal injection twice a day for one week. Praziquantel (50 mg/kg) was similarly solubilized and injected intraperitoneally once a day for one week. The negative control cohort was given twice daily injections of DMSO (50 μL) added to 200 μL trappsol-saline solution. Mice were weighed and euthanized at 49 days post infection. Worms were harvested and counted as in the hepatic shift assay. Spleen and livers were weighed, and a segment of intestine was excised from the most distal region of the rectum to 10 cm above the cecum. The small and large intestines were separated by cutting immediately above and below the cecum. Each was cut lengthwise to expose the lumen and thoroughly washed in NaCl (1.2%) to remove excrement. Intestines were laid flat with the intestinal mucosa facing upwards and clamped between two glass plates to allow visual inspection of eggs using a stereo microscope.
Mice were injected with vehicle control (dmso), the current frontline anthelmintic (praziquantel) or ergotamine twice daily for one week at starting 42 days post infection.
All animals were sacrificed 49 days post infection, and worms were harvested by dissection of the mesenteric vasculature, portal vein and liver. […] Schistosomes lay large numbers of eggs within the host mesenteric system, and these progress through stages of development over approximately 5 days which can be scored looking at samples of the intestinal mucosa (Pellegrino et al., 1965). Therefore, it is possible to visually determine whether drug treatment has arrested parasite egg laying by observing a lack of developing eggs. Sections of both the large and small intestines were examined and eggs were manually counted and scored according to developmental stage (representative stages of embryo development shown in FIG. 20H-I, top).

[1] = infected mice, ergotamine 95 mg/kg i.p. twice a day, one week

Sequence of Sm.5HTR (G4V5G4 entry or part of it): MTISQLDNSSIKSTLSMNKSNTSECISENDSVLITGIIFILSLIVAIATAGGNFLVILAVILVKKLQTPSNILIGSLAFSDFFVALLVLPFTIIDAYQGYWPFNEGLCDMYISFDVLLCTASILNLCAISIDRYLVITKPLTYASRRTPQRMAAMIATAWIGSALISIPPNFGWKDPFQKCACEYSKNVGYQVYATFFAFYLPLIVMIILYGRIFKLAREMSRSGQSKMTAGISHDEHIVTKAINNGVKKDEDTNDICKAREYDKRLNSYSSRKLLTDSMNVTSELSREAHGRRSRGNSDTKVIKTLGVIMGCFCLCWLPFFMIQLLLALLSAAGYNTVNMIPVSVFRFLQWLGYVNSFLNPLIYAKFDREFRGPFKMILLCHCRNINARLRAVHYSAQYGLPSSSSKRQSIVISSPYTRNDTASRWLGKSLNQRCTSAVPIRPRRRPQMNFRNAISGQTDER

## CN1C[C@H](C(=O)N[C@]2(C)O[C@@]3(O)[C@@H]4CCCN4C(=O)[C@H](Cc4ccccc4)N3C2=O)C=C2c3cccc4[nH]cc(c34)C[C@H]21 [ergotamine]
Sm.5HTR
  agonist efficacy at Sm.5HTR, in words: partial agonism
Sm.5HTR; read-out: EC50, agonist activity at Sm.5HTR
  EC50: 0.232 µM
Adult S. mansoni
  EC50: 0.01 ± 0.003 µM
Adult schistosomes; FIGS. 19H&I, ergotamine 1 μM
  reduction in size of eggs: 43%
Adult schistosomes; serotonin 100 μM, forskolin 100 μM, LSD 10 μM, nuciferine 10 μM, ergotamine 5 μM (FIG. 19F), eggs per worm pair/day over five days
  decrease of egg laying: 54%
S. mansoni; [1]
  increase of liver relative to uninfected littermates: 15±34%
  increase of spleen relative to uninfected littermates: 151±80%
S. mansoni; mice, ergotamine 95 mg/kg i.p. twice a day for one week from 42 days post infection, sacrificed day 49
  reduction of worm burden relative to controls: 65±10%
S. mansoni; mice, ergotamine 95 mg/kg twice a day, praziquantel 50 mg/kg once a day, i.p., one week, versus vehicle control
  decrease in intestinal egg counts: 96%
